In patent publication US6337326B1, “N-aryl-(homopiperazinyl)-cyclohexyl amines” (American Home Products Corporation, priority 1999, dated 2002):
Where a name gives a salt, the structure may show the parent alone.

Tests used:
Human 5-HT Transporter = target: T1, Human 5-HT Transporter (Homo sapiens, UniProt P31645); assay: Inhibition of 3H-5-HT Uptake by cells Possessing the Human 5-HT Transporter (HC 5-HT Transporter); assay type: cell-based; conditions: Jar cells (human carcinoma) treated with staurosporine, 37° C., 5 min
T1 construct: endogenous in cells; host or cells: Jar cells (human carcinoma cell line), treated with staurosporine
T1 sequence (P31645 whole entry): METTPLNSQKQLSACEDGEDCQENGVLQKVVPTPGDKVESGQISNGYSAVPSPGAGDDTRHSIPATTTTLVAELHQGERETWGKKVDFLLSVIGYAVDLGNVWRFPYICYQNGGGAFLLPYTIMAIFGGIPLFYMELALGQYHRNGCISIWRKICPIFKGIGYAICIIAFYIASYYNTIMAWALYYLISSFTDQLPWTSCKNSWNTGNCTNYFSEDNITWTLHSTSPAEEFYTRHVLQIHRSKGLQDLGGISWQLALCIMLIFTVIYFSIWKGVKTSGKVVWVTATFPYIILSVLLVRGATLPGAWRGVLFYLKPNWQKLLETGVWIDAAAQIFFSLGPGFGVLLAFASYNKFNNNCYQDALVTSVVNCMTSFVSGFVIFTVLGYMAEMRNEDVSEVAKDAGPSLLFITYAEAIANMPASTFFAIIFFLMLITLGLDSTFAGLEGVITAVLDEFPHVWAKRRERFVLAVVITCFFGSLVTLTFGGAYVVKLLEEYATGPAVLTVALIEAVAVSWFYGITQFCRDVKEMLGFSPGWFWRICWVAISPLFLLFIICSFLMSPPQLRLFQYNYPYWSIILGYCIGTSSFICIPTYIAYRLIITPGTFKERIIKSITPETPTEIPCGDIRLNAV
Method: [Staurosporine greatly increases the expression of the 5-HT-transporter.] On the day of assay, vehicle, excess of fluoxetine, or test compound is added to various wells on the plate. All wells then receive ^3H-5-HT and are incubated at 37° C. for 5 min. The wells are then washed with ice cold 50 mM Tris HCl (pH 7.4) buffer and aspirated to remove free ^3H-5-HT. 25 μl of 0.25 M NaOH is then added to each well to lyse the cells and 75 μl scintillation cocktail (Microscint™ 20) added prior to quantitation on a Packard TopCount machine. Tubes with vehicle represent total possible uptake, radioactivity counted in tubes with fluoxetine represent nonspecific binding/uptake and is subtracted from the total possible uptake to give total possible specific uptake. This nonspecific binding (usual low in number) is then subtracted from the counts obtained in wells with various test compounds (or different concentrations of test drug) to give specific uptake in the presence of drug. Specific uptake is then expressed as a % of control values and is analyzed using nonlinear regression analysis (Prizm) to determine IC50 values. If the compound is active at inhibiting 5-HT uptake, its counts will be close to that obtained with fluoxetine.

5-HT transporter = target: T2, 5-HT transporter (Rattus norvegicus, UniProt P31652); assay: Rat Brain 3H-Paroxetine Binding Assay (RB 5HT Transporter); conditions: frontal cortical membranes from male S.D. rats, 3H-paroxetine 0.1 nM, 60 min, 25° C.
T2 construct: from tissue; host or cells: frontal cortical membranes of male Sprague-Dawley rats
T2 sequence (P31652 whole entry): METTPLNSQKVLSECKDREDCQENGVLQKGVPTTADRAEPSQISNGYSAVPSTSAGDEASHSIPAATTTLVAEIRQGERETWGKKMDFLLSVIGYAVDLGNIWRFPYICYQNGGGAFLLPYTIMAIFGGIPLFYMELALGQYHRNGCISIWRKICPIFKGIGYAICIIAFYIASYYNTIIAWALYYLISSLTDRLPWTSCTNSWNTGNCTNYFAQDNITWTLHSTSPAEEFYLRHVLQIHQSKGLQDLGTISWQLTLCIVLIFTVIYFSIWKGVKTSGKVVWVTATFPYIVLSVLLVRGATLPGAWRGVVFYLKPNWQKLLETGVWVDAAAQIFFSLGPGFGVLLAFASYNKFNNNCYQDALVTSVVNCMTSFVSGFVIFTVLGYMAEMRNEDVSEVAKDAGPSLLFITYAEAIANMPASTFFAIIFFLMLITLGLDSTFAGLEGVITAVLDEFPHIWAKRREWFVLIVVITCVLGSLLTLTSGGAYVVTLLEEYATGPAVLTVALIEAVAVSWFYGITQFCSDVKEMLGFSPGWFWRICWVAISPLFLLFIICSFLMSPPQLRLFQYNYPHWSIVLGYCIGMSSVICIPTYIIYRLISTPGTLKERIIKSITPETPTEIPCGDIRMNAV
Method: Rat Brain ^3H-Paroxetine Binding Assay (RB 5HT Transporter)
The following assay was used to determine a compound's affinity of the 5-HT transporter.
A protocol similar to that used by Cheetham et. al. (Neuropharmacol. 1993, 32, 737) was used. Briefly, frontal cortical membranes prepared from male S.D. rats were incubated with ^3H-parxetine (0.1 nM) for 60 min. at 25° C. All tubes also contained either vehicle, test compound (one to eight concentrations), or a saturating concentration of fluoxetine (10 μM) to define […]. All reactions are terminated by the addition of ice cold Tris buffer followed by rapid filtration using a Tom Tech filtration device to separate bound from free ^3H-paroxetine. Bound radioactivity was quantitated using a Wallac 1205 Beta Plate® counter. Nonlinear regression analysis was used to determine IC50 values which were converted to Ki values using the method of Cheng and Prusoff (Biochem. Pharmacol. 1973, 22, 3099); [formula]

| melting point [°C] | IC50 (Human 5-HT Transporter) [nM] | Ki (5-HT transporter) [nM] | SMILES |
| --- | --- | --- | --- |
| 148 to 160 |  |  | COc1ccccc1N1CCCN(C2CCC(c3c[nH]c4ccccc34)CC2)CC1 (stereo not shown) (as salt: hydrochloride) [Example 1, 3-{4-[4-(2-Methoxy-phenyl)-[1,4]diazepan-1-yl]-cyclohexyl}-1H-indole] |
| 152 to 165 |  |  | c1cnc2c(N3CCCN(C4CCC(c5c[nH]c6ccccc56)CC4)CC3)cccc2c1 (stereo not shown) (as salt: hydrochloride) [Example 2, 8-{4-[4-(1H-Indol-3-yl)-cyclohexyl]-[1,4]diazepan-1-yl}-quinoline] |
|  | 578 | 42 | COc1ccccc1N1CCCN(C2CCC(c3c[nH]c4ccccc34)CC2)CC1 (stereo not shown) [Example 1, 3-{4-[4-(2-Methoxy-phenyl)-[1,4]diazepan-1-yl]-cyclohexyl}-1H-indole] |
|  | 399 | 9 | c1cnc2c(N3CCCN(C4CCC(c5c[nH]c6ccccc56)CC4)CC3)cccc2c1 (stereo not shown) [Example 2, 8-{4-[4-(1H-Indol-3-yl)-cyclohexyl]-[1,4]diazepan-1-yl}-quinoline] |
|  | 1140 | 12 | COc1ccccc1N1CCCN(C2CCC(c3c[nH]c4ccc(F)cc34)CC2)CC1 (stereo not shown) [Example 3, 3-{4-[4-(2-Methoxy-phenyl)-[1,4]diazepan-1-yl]-cyclohexyl}-5-fluoro-1H-indole] |
|  |  | 27 | COc1ccccc1N1CCCN(C2CCC(c3c[nH]c4ccc(C#N)cc34)CC2)CC1 (stereo not shown) [Example 4] |
|  | 272 | 4.9 | COc1ccccc1N1CCCN(C2CCC(c3c[nH]c4cc(F)ccc34)CC2)CC1 (stereo not shown) [Example 5, 3-{4-[4-(2-Methoxy-phenyl)-[1,4]diazepan-1-yl]-cyclohexyl}-6-fluoro-1H-indole] |
|  | 602 | 9 | Fc1ccc2[nH]cc(C3CCC(N4CCCN(c5cccc6cccnc56)CC4)CC3)c2c1 (stereo not shown) [Example 6, 8-{4-[4-(5-Fluoro-1H-indol-3-yl)-cyclohexyl]-[1,4]diazepan-1-yl}-quinoline] |
|  |  | 11 | N#Cc1ccc2[nH]cc(C3CCC(N4CCCN(c5cccc6cccnc56)CC4)CC3)c2c1 (stereo not shown) [Example 7, 8-{4-[4-(5-Cyano-1H-indol-3-yl)-cyclohexyl]-[1,4]diazepan-1-yl}-quinoline] |
|  | 317 | 2.7 | Fc1ccc2c(C3CCC(N4CCCN(c5cccc6cccnc56)CC4)CC3)c[nH]c2c1 (stereo not shown) [Example 8, 8-{4-[4-(6-Fluoro-1H-indol-3-yl)-cyclohexyl]-[1,4]diazepan-1-yl}-quinoline] |
|  | 4470 | 86 | Fc1ccc2[nH]cc(C3CCC(N4CCCN(c5cccc(C(F)(F)F)c5)CC4)CC3)c2c1 (stereo not shown) [Example 9, 3-{4-[4-(3-Trifluoromethyl-phenyl)-[1,4]diazepan-1-yl]-cyclohexyl}-5-fluoro-1H-indole] |
|  | 3760 | 207 | N#Cc1ccc2[nH]cc(C3CCC(N4CCCN(c5cccc(C(F)(F)F)c5)CC4)CC3)c2c1 (stereo not shown) [Example 10] |
|  | 1280 | 27 | Fc1ccc2c(C3CCC(N4CCCN(c5cccc(C(F)(F)F)c5)CC4)CC3)c[nH]c2c1 (stereo not shown) [Example 11, 3-{4-[4-(3-Trifluoromethyl-phenyl)-[1,4]diazepan-1-yl]-cyclohexyl}-6-fluoro-1H-indole] |
